Here are results for 6 molecules from BindingDB's records for doi:10.1021/jm980707k (University of Alabama At Birmingham, 1999).

This experiment is described as follows: In vitro inhibitory activity against H1N9 Influenza A Neuraminidase.

Broadly, the IC50 is the point on the concentration scale where inhibition reaches its midpoint. The low end stands for greater potency in that assay, the high end for weaker potency in that assay. Turning to `CCC(CC)Nc1cc(C(=O)O)ccc1N1CCCC1=O` [3-(1-Ethyl-propylamino)-4-(2-oxo-pyrrolidin-1-yl)-benzoic acid], the concentration for half-maximal inhibition (IC50) worked out at 222 µM. As for `NC(N)=Nc1cc(C(=O)O)ccc1N1C(=O)CCC1(CO)CO` [4-(2,2-Bis-hydroxymethyl-5-oxo-pyrrolidin-1-yl)-3-guanidino-benzoic acid], the figure is 5 µM. Regarding `O=C(O)c1ccc(N2C(=O)CCC2(CO)CO)cc1` [4-(2,2-Bis-hydroxymethyl-5-oxo-pyrrolidin-1-yl)-benzoic acid anion], the IC50 came out at 760 µM. As for `NCC1CCC(=O)N1c1ccc(C(=O)O)cc1N=C(N)N` (stereo unspecified) [4-(2-Aminomethyl-5-oxo-pyrrolidin-1-yl)-3-guanidino-benzoic acid], the figure is 2600 µM; as for `CCC(CC)Nc1cc(C(=O)O)ccc1N1C(=O)CCC1(CO)CO` [4-[2,2-bis(hydroxymethyl)-5-oxopyrrolidin-1-yl]-3-[(1-ethylpropyl)amino]benzoic acid], 0.048 µM. To `CC(=O)N[C@@H]1[C@@H]([C@H](O)[C@H](O)CO)O[C@](O)(C(=O)O)C[C@H]1O` [(2S,4R,5S,6S)-5-Acetylamino-2,4-dihydroxy-6-((1R,2R)-1,2,3-trihydroxy-propyl)-tetrahydro-pyran-2-carboxylic acid] belongs 10 µM.
